Assay results from patent publication US5583155A, “6-amino-1,2-benzopyrones useful for treatment of viral diseases” (Octamer, Inc., priority 1994, dated 1996).
“Also recorded” adds a separate entry of the source. Read-outs that look alike come from different tables or passages of the source.

Key:
[1] = tested on: HIV in U937 cells; experiment: HIV growth in U937 cells without activator (syncytium-forming assay); assay type: cell-based, HIV-1
Protocol: In order to assess a possible direct effect of the drug on the growth of HIV, experiments shown in FIG. 3 were reproduced, except that conditions of virus titration (by SFU) were refined, to detect relatively low virus titers.
Transfection was 24 hours before HIV infection.

[2] = assay type: in vivo
Protocol: This example illustrates the lack of toxicity after intraperitoneal administration of 6-ABP to mice.
Two toxicological tests administering 6-ABP to mice were performed under the following conditions.
One group of 5 mice received 6-ABP i.p. injection in amount of 1 g/kg.
Group of 50 white mice was injected daily with 250 mg/kg 6-ABP i.p. for 12 days.

[3] = tested on: HIV in human lymphoblasts; experiment: HIV production in human lymphoblasts (p24 antigen); assay type: cell-based, HIV (isolates from blood of infected patients)
Protocol: In FIG. 10, human lymphoblast exposed to 6-ABP for 18 hours. The drug concentrations studied were between 0.01 to 10 mM. HIV production was studied in two time intervals, 6 and 12 days after the drug removal.
In FIGS. 11A through 11E, normal lymphoblasts stimulated with PHA are infected with HIV and at the same time are submitted to various concentrations from 0-10 mM 6-ABP. After the short exposure of 18 hours, both HIV and 6-ABP are removed, FIGS. 11A, 11C, 11E and the 6-ABP in the same concentrations is readded up to 4 days to cultures shown in FIGS. 11B and 11D. At 4 days, proliferation index measured by ^3 H-thymidine incorporation is determined in FIGS. 11A and 11B. […] In FIGS. 11C and […], the viral synthesis or inhibition is measured by p 24 assay.
The HIV isolates used in these experiments were isolated from the blood of infected patients. After isolation, HIV infection was established in CEM cells, and these infected cells were used to produce a stock of HIV virus that was titered to measure the concentration of tissue culture infective doses (TCID).
6 ABP was dissolved in saline in amount which was further diluted as required, and added to the culture medium containing cells at the indicated concentrations.
Human peripheral blood mononuclear cells from a noninfected, normal individual were stimulated for 2 to 3 days with phytohemagglutinin in tissue culture, washed, aliquoted and cultured overnight with 200 TCID or 50 TCID of HIV and were untreated or treated with 0.01, 0.1, 1.0 or 10.0 mM 6-ABP. An additional control was incubated with 10 mM 6-ABP without presence of HIV. After the overnight incubation, […]. The cells were placed in culture in medium containing IL-2, but in the absence of additional 6-ABP, and monitored at 6 days and 12 days for the production of HIV-p24 core antigen, or for measurements of particulate reverse transcriptase. A decrease in the amount of either of these indicators of HIV indicated an inhibition by 6-ABP in the ability of HIV to replicate in normal human lymphoblasts.
HIV p24 antigen was measured by ELISA, with a cutoff of 5 pgm/ml. Particulate reverse transcriptase was measured by centrifuging down free virus from tissue culture fluids, lysing HIV in a buffer containing detergent, magnesium, H3-labelled dTTP and poly rA.oligo dT primer, incubating for 1 hour, and measuring precipitable radioactivity, expressed as cpm per volume of HIV-containing medium.

[4] = Intracellular metabolism of 6-ABP
[5] = tested on: HSV-2 strain G; experiment: microbe, parasite or virus in culture; assay type: cell-based, Herpes simplex virus type 2
[6] = tested on: established cell lines; experiment: Intracellular drug concentration / transport in twelve cell lines; assay type: in vitro ADME
Protocol: It is of importance to determine both intracellular drug concentrations and mechanisms of drug transport. Twelve different cell types were incubated with varying concentrations of the drug for varying periods and intracellular drug concentration assayed with the aid of [5^3 H] labeled 6-ABP. […] Thus, there is a significant transport regulation through the cell membrane.

[7] = tested on: Adenovirus; experiment: microbe, parasite or virus in culture; assay type: cell-based, Adenovirus (patient isolate)
[8] = tested on: Enterovirus (ECHO-11); experiment: microbe, parasite or virus in culture; assay type: cell-based
[9] = tested on: HSV-1 strain F; experiment: microbe, parasite or virus in culture; assay type: cell-based, Herpes simplex virus type 1
[10] = tested on: CMV; experiment: microbe, parasite or virus in culture; assay type: cell-based, human cytomegalovirus (patient isolate)
[11] = Yakugaku Zasshi, cited from earlier work
[12] = tested on: Influenza virus; experiment: microbe, parasite or virus in culture; assay type: cell-based, Influenza virus (patient isolate)
[13] = tested on: HIV-LTR; experiment: cells
Protocol: All chimeric CAT constructions were prepared in pCATB' containing the CAT structural gene without eukaryotic promoter sequence.
DNA transfection was performed with DEAE dextran. Briefly, U937 cells (5×10^6) were exposed for 60 min. at 37° C. to a mixture of DEAE Dextran (1.05 ug/ml) and DNA in STBS buffer (25 mM Tris HCl, having pH 7.5, 137 mM NaCl, 0.5 MgCl2, 0.7 mM CaCl2 and 5 mM KCl and 0.6 mM Na2 HPO4) in 15 ml snap cap 6×35 mm polyethylene dishes from Costar, Cambridge, Mass., at 5×10^6 cells per well. Routinely, transfection mixtures contained 1.0 ug of target supercoiled plasmid and 0.1 ug DNA to equalize nucleic acid concentration effects. Transfected cells were harvested 40 to 44 hr post transfection in CAT harvest buffer (40 mM Tris, having pH 7.4 150 mM NaCl, 1 mM EDTA) and stored at -20° C. until assayed.
Routine assay conditions employed 0.2 uCi of [^14 C]-chloramphenicol substrate and an incubation time of 60 min. For quantitative estimates of CAT activity and fold activation, the appropriate sections were cut from the thin-layer chromatography scintillation fluid added and the radioactivity was counted in a scintillation counter. Quantitative comparisons were made by measuring the amounts of chloramphenicol-acetate product with enzyme concentrations and time. pSV CAT was used as a positive control, and the parent (pCATB') was used as a negative control. […]

[14] = tested on: HIV in whole blood; experiment: HIV inhibition in whole blood of HIV infected patients; assay type: cell-based; settings: FIG. 10 results repeated in whole blood
[15] = 1 mM 6-ABP, 24 hours before infection
[16] = 1, 5 and 10 mM, zero time vs 4 hours after infection

Nc1ccc2oc(=O)ccc2c1 [6-ABP, 6-amino-1,2-benzopyrone]
effect on HIV growth without activator ([1]; 3 mM, FIGS. 3 and 4): completely inhibit any viral growth; also recorded: significant effect on HIV growth
effect on HIV growth in absence of activating HSV gene ([1]; Table 2 experiment): significant reduction in HIV growth
HIV growth, U937 + 6-ABP ([1]; day 3, no activator): 13 SFU/ml
HIV growth, U937 + 6-ABP ([1]; day 5, no activator): 10 SFU/ml
HIV growth, U937 + 6-ABP ([1]; day 6, no activator): 10 SFU/ml
HIV growth, U937 + 6-ABP ([1]; day 8, no activator): 10 SFU/ml
behavior ([2]; 250 mg/kg i.p. daily, 12 days): quite normal
toxic effects ([2]; 250 mg/kg i.p. daily, 12 days): no visible toxic effects
weight gain ([2]; 250 mg/kg i.p. daily, 12 days): no disruption in their normal weight gain
seizures and weakness in one mouse ([2]; 1 g/kg i.p., 4 hours after injection, recovered in 18 hours): seizures and hind leg weakness but then completely recovered in 18 hours
toxic symptoms ([2]; 1 g/kg i.p., single, 24 hours observation): no toxic symptoms in 4 mice
viral multiplication, p 24 assay ([3]; 0-10 mM, 18 hours or 4 days exposure, FIGS. 11C and 11D): almost completely inhibited
HIV production in human lymphoblasts ([3]; 0.1 μM (so in the source), 18 hours exposure, 6 and 12 days): HIV production decreased dramatically
decrease of HIV (p24 tests) ([3]; 0.1 mM, 18 hours exposure, 6 or 12 days past infection): dramatic decrease of HIV
selectivity against HIV replication vs cellular DNA synthesis ([3]; 18 hr exposure, FIG. 11): great selectivity of 6-ABP against HIV replication
reduction-oxidation cycle ([4]; liver vs target cells): high in liver but much lower in target cells
intracellular oxidation ([4]; to 6-nitroso-1,2-benzopyrone): rapid oxidation at the 6-amino position
Virus Titer +6-ABP (HSV-2) [5, 15]: 2 × 10^5 PFU per ml
effect of time of drug addition, HSV-2 (G) [5, 16]: essentially no differences found between the two modes of drug exposure
inhibition of HSV-2 strain G growth ([5]; 1-10 mM, 24 hours pretreatment, HEp-2 cells): 90-97%
inhibition at 1000 µM ([5]; Human alphaherpesvirus 2, 0 h, 1 mM at 0 hours (time of infection), read-out: inhibition of HSV-2 growth): 85%
inhibition at 1000 µM ([5]; Human alphaherpesvirus 2, 1 mM 6-ABP, 24 hours before infection, read-out: % Inhibition (HSV-2), Table 1): 87.5%
inhibition at 1000 µM ([5]; Human alphaherpesvirus 2, 1 mM, 24 hours pretreatment, read-out: inhibition of HSV-2 growth): 90%
inhibition at 1000 µM ([5]; Human alphaherpesvirus 2, 4 h, 1 mM at 4 hours post infection, read-out: inhibition of HSV-2 growth): 72%
inhibition at 200 µM ([5]; Human alphaherpesvirus 2, HEp-2, 0.2 mM, 24 hours pretreatment, HEp-2 cells, read-out: inhibition of HSV-2 strain G growth): ~45%
concentration of intracellular drug ([6]; 1 mM extracellular administration, depending on cell types): 65 to 200 µM
intracellular plateau, % of drug concentration applied extracellularly ([6]; 12 established cell lines): 10-20%
time to plateau of 6-ABP transport ([6]; 12 established cell lines): 18 to 24 h
penetration of mammalian cells ([6]; physiological pH 7.2-7.4): to a limited degree
Virus Titer +6-ABP (Adenovirus) [7, 15]: 1 × 10^2 TCID50
effect on Adenovirus growth ([7]; 6-ABP treatment): no effect
inhibition at 1000 µM ([7]; unidentified adenovirus, 1 mM 6-ABP, 24 hours before infection): 0%
Virus Titer +6-ABP (Enterovirus) ([8]; 1 mM 6-ABP, 24 hours before infection, ECHO-11): 1.6 × 10^6 TCID50
effect on Enterovirus growth ([8]; 6-ABP treatment): no effect
inhibition at 1000 µM ([8]; Enterovirus, 1 mM 6-ABP, 24 hours before infection, ECHO-11): 0%
effect of time of drug addition, HSV-1 (F) [9, 16]: essentially no differences found between the two modes of drug exposure
dependence of inhibitory effect on cell type ([9]; HSV growth in HEp-2, Vero and MRC-5 cells): not affected by cell type
inhibition at 1000 µM ([9]; Human alphaherpesvirus 1, 1 mM at 0 and 4 hours post infection, respectively, read-out: inhibition of HSV-1 growth): 60 to 65%
inhibition at 1000 µM ([9]; Human alphaherpesvirus 1, 1 mM, 24 hours before infection, read-out: inhibition of HSV-1 growth): 50%
inhibition at 10000 µM ([9]; Human alphaherpesvirus 1, 10 mM, 0 and 4 hours post infection, read-out: inhibition of HSV-1 growth): ~80%
inhibition at 2000 µM ([9]; Human alphaherpesvirus 1, HEp-2, 24 h, 2 mM, 24 hrs preexposure, HEp-2 cells, FIG. 1A, read-out: inhibition of HSV-1 strain F growth): > 50%
IC50 ([9]; Human alphaherpesvirus 1, 24 hours pretreatment, HEp-2 cells, read-out: concentration for 50% inhibition of growth, HSV-1 strain F): 2000 µM
Virus Titer +6-ABP (CMV) [10, 15]: 1 × 10^3 TCID50
effect on CMV growth ([10]; 6-ABP treatment): effectively inhibits CMV growth
inhibition at 1000 µM ([10]; Human betaherpesvirus 5, 1 mM 6-ABP, 24 hours before infection): 90%
hypothermal effect ([11]; 78:491 (1958)): 6-amino group decreased the hypothermal effect
antipyretic, hypnotic, hypotensive and adrenolytic action ([11]; 83:1124 (1963)): Some antipyretic, hypnotic, hypotensive and adrenolytic action
Virus Titer +6-ABP (Influenza) ([12]; 1 mM 6-ABP, 24 hours before infection, highest dilution that caused 50% hemagglutination): 1 × 10^4
effect on Influenza virus growth ([12]; 6-ABP treatment): no effect
inhibition at 1000 µM ([12]; unidentified influenza virus, read-out: % Inhibition (Influenza)): 0%
fold induction at 5000 µM ([13]; Human immunodeficiency virus 1, U-937, read-out: Fold Activation, HSV-IE-110 + 6-ABP, 5 mM 6-ABP, HSV-IE-110): 20
fold induction at 2000 µM ([13]; Human immunodeficiency virus 1, U-937, read-out: HIV-LTR-CAT activation by IE-110 after treatment, 2 mM 6-ABP, FIG. 5, 344-fold activation without drug): 0.4 to 0.9
HIV inhibition in whole blood [14]: essentially reproduced in whole blood of HIV infected patients
